Laboratory results reported in patent US11713338B2, “Cyclic peptides multimers targeting α-4-β-7 integrin” (priority 2016, dated 2023).
Read-outs that look alike come from different tables or passages of the source.

Target: T1, integrin α4β7 on α4β7+ memory T helper cells (Homo sapiens, UniProt P13612+P26010)
T1 construct: endogenous in cells
T1 sequence (P13612 34-1032): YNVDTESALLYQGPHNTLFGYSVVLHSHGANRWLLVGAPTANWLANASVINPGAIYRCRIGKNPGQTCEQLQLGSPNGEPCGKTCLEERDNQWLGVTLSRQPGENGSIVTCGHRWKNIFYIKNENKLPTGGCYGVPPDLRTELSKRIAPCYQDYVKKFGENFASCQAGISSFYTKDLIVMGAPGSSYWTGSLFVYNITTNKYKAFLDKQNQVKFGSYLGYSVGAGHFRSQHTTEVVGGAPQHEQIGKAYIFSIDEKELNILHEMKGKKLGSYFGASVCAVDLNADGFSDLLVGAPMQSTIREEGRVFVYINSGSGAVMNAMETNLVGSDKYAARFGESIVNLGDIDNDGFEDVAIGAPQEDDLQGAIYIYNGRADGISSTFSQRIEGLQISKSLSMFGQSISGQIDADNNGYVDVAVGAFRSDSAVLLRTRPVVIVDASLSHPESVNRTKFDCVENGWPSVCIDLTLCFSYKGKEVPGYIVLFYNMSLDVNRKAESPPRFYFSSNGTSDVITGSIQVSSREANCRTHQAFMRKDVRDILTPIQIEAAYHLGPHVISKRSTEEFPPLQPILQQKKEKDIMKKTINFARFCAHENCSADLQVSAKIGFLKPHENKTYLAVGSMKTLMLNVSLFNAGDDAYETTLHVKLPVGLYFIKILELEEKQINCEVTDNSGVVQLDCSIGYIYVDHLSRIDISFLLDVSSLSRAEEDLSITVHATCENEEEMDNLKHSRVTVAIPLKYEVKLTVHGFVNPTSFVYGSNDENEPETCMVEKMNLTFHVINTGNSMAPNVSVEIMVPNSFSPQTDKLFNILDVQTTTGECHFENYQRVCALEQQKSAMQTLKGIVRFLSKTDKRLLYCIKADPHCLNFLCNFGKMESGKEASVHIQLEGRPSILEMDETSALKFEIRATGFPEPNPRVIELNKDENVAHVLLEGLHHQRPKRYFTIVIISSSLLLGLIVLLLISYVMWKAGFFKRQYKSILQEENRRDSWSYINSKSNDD
T1 sequence (P26010 20-798): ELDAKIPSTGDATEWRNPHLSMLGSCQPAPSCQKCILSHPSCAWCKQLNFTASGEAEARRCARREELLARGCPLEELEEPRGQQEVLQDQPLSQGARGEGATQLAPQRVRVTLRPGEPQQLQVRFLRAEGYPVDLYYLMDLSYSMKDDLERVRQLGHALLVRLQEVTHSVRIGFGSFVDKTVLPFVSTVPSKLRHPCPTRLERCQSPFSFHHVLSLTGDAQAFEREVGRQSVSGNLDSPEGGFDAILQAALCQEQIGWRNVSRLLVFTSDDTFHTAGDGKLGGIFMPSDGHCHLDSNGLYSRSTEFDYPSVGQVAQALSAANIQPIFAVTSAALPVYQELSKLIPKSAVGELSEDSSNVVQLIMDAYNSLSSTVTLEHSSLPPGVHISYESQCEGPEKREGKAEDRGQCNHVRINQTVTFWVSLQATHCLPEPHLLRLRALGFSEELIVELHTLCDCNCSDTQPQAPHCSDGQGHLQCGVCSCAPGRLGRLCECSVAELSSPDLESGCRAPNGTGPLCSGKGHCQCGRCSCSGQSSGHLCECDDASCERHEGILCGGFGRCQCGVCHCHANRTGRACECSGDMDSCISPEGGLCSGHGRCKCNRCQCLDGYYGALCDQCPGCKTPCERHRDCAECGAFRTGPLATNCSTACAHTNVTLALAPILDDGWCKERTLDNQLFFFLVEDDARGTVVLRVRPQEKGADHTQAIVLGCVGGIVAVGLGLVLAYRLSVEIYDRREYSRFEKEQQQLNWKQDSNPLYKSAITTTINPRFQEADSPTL
Assay: MAdCAM-1 competition / receptor occupancy assay in human whole blood, α4β7-positive Th memory cells
Assay type: cell-based
Method in brief: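 Human heparinised whole blood; saturating biotinylated rhMAdCAM-1-Fc or rhVCAM-1-Fc bound 1 h at RT, stained in buffer with 4 mM MnCl2, detected by streptavidin-APC flow cytometry on gated CD45+CD3+CD4+CD45RO+CD49d+ β7+ or β7-lo cells. Occupancy = 100−((% ligand-positive cells with compound/% ligand-positive cells DMSO)*100).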

[1] = human whole blood, inhibition of MAdCAM-1 binding to α4β7-positive Th memory cells, FACS, read-out: MADCAM FACS α4β7 Th mem

Row | SMILES | IC50 [1] [nM] | IC50 (whole blood from a single donor, FIG. 10, read-out: IC50, inhibition of MAdCAM-1 binding to primary cells) [nM] | EC50 (human whole blood, FIG. 7, read-out: EC50, competition with saturating amount of MAdCAM) [nM]
1 | CC(C)C[C@@H]1NC(=O)C[C@H](CCCCN)N(C)C(=O)[C@H](CCCCNC(=O)CCCCCCCCC(=O)NCCCC[C@@H]2NC(=O)[C@@H]3CCCN3[C@H](C(=O)NC(C)(C)C)[C@H](C)NC(=O)[C@H]([C@@H](C)O)NC(=O)[C@H](CC(=O)O)NC(=O)[C@H](CC(C)C)NC(=O)C[C@H](CCCCN)N(C)C2=O)NC(=O)[C@@H]2CCCN2[C@H](C(=O)NC(C)(C)C)[C@H](C)NC(=O)[C@H]([C@@H](C)O)NC(=O)[C@H](CC(=O)O)NC1=O [Compound 530] | 33 | 87 to 141 | –
2 | CC(C)C[C@@H]1NC(=O)c2ccc(-c3ccc(N4CCN(C(=O)c5ccc(-c6ccc(C(=O)N7CCN(c8ccc(-c9ccc%10cc9CNC(=O)[C@@H]9CCCN9[C@H](C(=O)NC(C)(C)C)[C@H](C)NC(=O)[C@H]([C@@H](C)O)NC(=O)[C@H](CC(=O)O)NC(=O)[C@H](CC(C)C)NC%10=O)cc8)CC7)cc6)cc5)CC4)cc3)c(c2)CNC(=O)[C@@H]2CCCN2[C@H](C(=O)NC(C)(C)C)[C@H](C)NC(=O)[C@H]([C@@H](C)O)NC(=O)[C@H](CC(=O)O)NC1=O [Compound 474] | 74 | – | –
3 | CC(C)C[C@@H]1NC(=O)c2ccc(-c3ccc(N4CCN(C(=O)COCC(=O)N5CCN(c6ccc(-c7ccc8cc7CNC(=O)[C@@H]7CCCN7[C@H](C(=O)NC(C)(C)C)[C@H](C)NC(=O)[C@H]([C@@H](C)O)NC(=O)[C@H](CC(=O)O)NC(=O)[C@H](CC(C)C)NC8=O)cc6)CC5)CC4)cc3)c(c2)CNC(=O)[C@@H]2CCCN2[C@H](C(=O)NC(C)(C)C)[C@H](C)NC(=O)[C@H]([C@@H](C)O)NC(=O)[C@H](CC(=O)O)NC1=O [Compound 390] | 90 | – | 90
4 | CC(C)C[C@@H]1NC(=O)C[C@H](CCCCN)N(C)C(=O)[C@H](CCCCNC(=O)CCCCCC(=O)NCCCC[C@@H]2NC(=O)[C@@H]3CCCN3[C@H](C(=O)NC(C)(C)C)[C@H](C)NC(=O)[C@H]([C@@H](C)O)NC(=O)[C@H](CC(=O)O)NC(=O)[C@H](CC(C)C)NC(=O)C[C@H](CCCCN)N(C)C2=O)NC(=O)[C@@H]2CCCN2[C@H](C(=O)NC(C)(C)C)[C@H](C)NC(=O)[C@H]([C@@H](C)O)NC(=O)[C@H](CC(=O)O)NC1=O [Compound 532] | 57 | – | –
5 | CC(C)C[C@@H]1NC(=O)c2ccc(-c3ccc(N4CCN(C(=O)c5ccc(-c6cccc(C(=O)N7CCN(c8ccc(-c9ccc%10cc9CNC(=O)[C@@H]9CCCN9[C@H](C(=O)NC(C)(C)C)[C@H](C)NC(=O)[C@H]([C@@H](C)O)NC(=O)[C@H](CC(=O)O)NC(=O)[C@H](CC(C)C)NC%10=O)cc8)CC7)n6)nc5)CC4)cc3)c(c2)CNC(=O)[C@@H]2CCCN2[C@H](C(=O)NC(C)(C)C)[C@H](C)NC(=O)[C@H]([C@@H](C)O)NC(=O)[C@H](CC(=O)O)NC1=O [Compound 466] | 164 | – | –
